Tests used:
Lucilia cuprina larvae = test: Blowfly larvae test / development-inhibitory action; assay type: in vivo; conditions: 100 ppm active compound
Procedure: Blowfly Larvae Test/Development-Inhibitory Action Test animals: Lucilia cuprina larvae Solvent: Dimethyl sulphoxide 20 mg of active compound are dissolved in 1 ml of dimethyl sulphoxide, more dilute concentrations are prepared by dilution with distilled water. About 20 Lucilia cuprina larvae are introduced into a test tube which contains about 1 cm^3 of horse meat and 0.5 ml of the preparation of active compound to be tested. The efficacy of the preparation of active compound is determined after 24 and 48 hours. The test tubes are transferred into beakers whose bottom is covered with sand. After a further 2 days, the test tubes are removed and the pupae are counted. The activity of the preparation of active compound is assessed by the number of flies that have hatched after 1.5 times the development time of an untreated control. 100% means that no flies have hatched; 0% means that all flies have hatched normally.

[1] = test system: caterpillars of the diamond-back moth (Plutella xylostella); test: Plutella test; assay type: in vivo; conditions: 40 ppm active compound, cabbage leaves dipped
Procedure: Plutella Test Solvent: 30 parts by weight of dimethylformamide Emulsifier: 1 part by weight of alkylaryl polyglycol ether To produce a suitable preparation of active compound, 1 part by weight of active compound is mixed with the stated amounts of solvent and emulsifier, and the concentrate is diluted with emulsifier-containing water to the desired concentration. Cabbage leaves (Brassica oleracea) are treated by being dipped into the preparation of active compound of the desired concentration and are populated with caterpillars of the diamond-back moth (Plutella xylostella) whilst the leaves are still moist. After the desired period of time, the kill in % is determined. 100% means that all caterpillars have been killed; 0% means that none of the caterpillars have been killed.

Structure (SMILES) | Kill rate in % after 48h (Lucilia cuprina larvae) [%] | Kill rate in % after 6d [1] [%]
CCn1nnc(-c2ccc(-c3ccc(C4CCC(c5c(F)cccc5F)=N4)cc3)cc2)n1 (stereo not drawn) [drawing 71] | 100 | –
CCOCn1nnc(-c2ccc(-c3ccc(C4CCC(c5c(F)cccc5F)=N4)cc3)cc2)n1 (stereo not drawn) [drawing 72] | 70 | –
CC(C)(C)n1nnc(-c2ccc(-c3ccc(C4CCC(c5c(F)cccc5F)=N4)cc3)cc2)n1 (stereo not drawn) [drawing 60] | – | 100

From US20040152904A1, “Delta1 pyrrolines” (priority 2001, published 2004)
